Measured values reported in publication PMC9694197, “Undescribed Metabolites from an Actinobacteria Acrocarpospora punica and Their Anti-Inflammatory Activity” (Molecules, 2022).
Entries after “also recorded” stand apart in the source; their conditions may differ. Like-named read-outs stand apart in the source and are kept apart here.

Assays:
Type in all cases: cell-based, mouse
[1] = tested on: LPS-induced NO production in RAW 264.7 murine macrophages; test: LPS-induced iNOS-dependent NO production (nitrite, Griess reagent assay); conditions: for NO inhibitory activity compared to quercetin: ratio to the positive control quercetin, RAW 264.7, LPS; for IC50: read-out: IC50, NO generation; for NO inhibitory activity (in words): RAW 264.7, LPS-stimulated
Method: (§1) The six isolates, in sufficient amounts, were evaluated by examining their inhibitory effects on LPS-induced inducible nitric oxide synthase (iNOS)-dependent NO production in the murine macrophage cell line RAW 264.7 (Table 5). […] (e) Compounds 3 and 6 belong to liner azaphilone skeleton and naphthenic derivatives, respectively; compound 3 has better anti-inflammatory activity than 6. […] (g) The cytotoxic effects were measured using an MTT assay.
(§2) Mouse macrophage cell line (RAW 264.7) was obtained from the Bioresource Collection and Research Center (BCRC 60001) and cultured at 37 °C in Dulbecco’s Modified Eagle’s Medium (DMEM) supplemented with 10% fetal bovine serum (Gibco), 4.5 g/L glucose, 4 mM glutamine, penicillin (100 units/mL), and streptomycin (100 μg/mL) in a humidified atmosphere in a 5% CO2 incubator. The cells were treated with 10, 25, 50 μM natural products in the presence of 1 μg/mL LPS (lipopolysaccharide, Sigma-Aldrich) for 20 h. The concentration of NO in culture supernatants was determined as nitrite, a major stable product of NO, by a Griess reagent assay, and the cell viabilities were determined using the MTT assay as described previously.

[2] = tested on: iNOS gene (mRNA expression); test: RT-PCR of iNOS mRNA expression after LPS treatment
Method: as §1
The ImProm-II Reverse Transcription System (Promega) was used to take 1 μg of the extracted total RNA, to which was added 1 μL of Oligo(dT)15 Primer, and other supplements with DEPS water. At this time, the total volume was 5 μL. The reaction was immediately placed on ice for at least 5 min, and then 5 × buffer 4 μL, MgCl2 (25 mM) 1.2 μL, dNTP Mix (10 mM) 1 μL, RNasin Ribonuclease Inhibitor 0.5 μL, ImProm-II reverse transcriptase 1 μL and DEPC H2O 6.8 μL was added; the cDNA product was obtained after the reactions of 25 °C, 5 min; 42 °C, 1 h; and 70 °C, 15 min. At the same time, a negative control group was made without reverse transcriptase to confirm whether there was DNA contamination. The obtained cDNA product was then amplified by a PCR reaction to amplify the predicted fragment.
Using the ABI PRISM 7700 Sequence Detection System, the cDNA product was assayed for iNOS, TNF-α, IL-6 and β-actin (internal standard) in a total reaction volume of 20 μL, including 2 × IQ2 SYBR Green Fast qPCR Master Mix (2X) 10 μL, 10 μM of 5′ and 3′ primers 1 μL each. The cDNA template 1 μL reaction conditions were 95 °C, 2 min, 1 cycle; 95 °C, 5 s; and 60 °C, 30 s, 40 cycles. The primers of the PCR reaction were: sense strand iNOS, 5′-GGAGTGACGGCAAACATGACT-3′; anti-sense strand iNOS, 5′-TCGATGCACAACTGGGTGAAC-3′; sense strand IL-6, 5′-CAGAGTCCTTCAGAGAGATACAG-3′; anti-sense strand IL-6, 5′-GATGAATTGGATGGTCTTGGTCC-3′; sense strand TNF-α, 5′-CAGACCCTCACACTCAGATC-3′; anti-sense strand TNF-α, 5′-CTTTGAGATCCATGCCGTTG-3′; sense strand β-actin, 5′-GGCTGTATTCCCCTCCATCG-3′; and anti-sense strand β-actin, 5′-CCAGTTGGTAACAATGCCATGT-3′.

[3] = Cell viability, MTT assay; conditions: mouse, RAW 264.7 macrophage cells; RAW 264.7, MTT assay
Method: as §1, §2

[4] = tested on: RAW 264.7 cells; test: Cell viability, MTT assay; conditions: RAW 264.7, MTT assay, with 1 μg/mL LPS, 20 h; mean ± S.E.M.
Method: as §1, §2

[5] = RAW 264.7 murine macrophages, 1 μg/mL LPS, 20 h, mean ± S.E.M. of three independent experiments
[6] = Mus musculus, RAW264.7, 20 h, RAW 264.7 murine macrophages, 1 μg/mL LPS, 20 h, mean ± S.E.M. of three independent experiments

With `CC=CC1=CC2=CC3=C(C(=O)CCCCC)C(=O)OC3(C)C(=O)C2=CN1CC` (centres unmarked) [Acrocarpunicain A (1), acrocarpunicain A] the “NO inhibitory activity compared to quercetin” value [1] was “about 4 fold”, the “Effect on LPS-increased iNOS mRNA expression” value [2] was “inhibited this increase in a concentration-dependent manner; also recorded: significantly inhibited” and the viability at 20 h [3] was greater than 90%. For the same compound, the “Cell Viability (% Control)” value [4] was 100 ± 15.5 % Control.

In the case of `CC=CC1=CC2=CC3=C(C(=O)CCCCCCC)C(=O)OC3(C)C(=O)C2=CN1CC` (centres unmarked) [Acrocarpunicain B (2), acrocarpunicain B], the IC50 ([1]; RAW 264.7 murine macrophages, 1 μg/mL LPS, 20 h, mean ± S.E.M. of three independent experiments, listed as 2) is reported as no more than 27.2 µM, the IC50 [1, 5] is reported as 10.1 ± 0.47 µM and the “NO inhibitory activity compared to quercetin” value [1] is reported as roughly 3 fold. The “Effect on LPS-increased iNOS mRNA expression” value [2] was “inhibited this increase in a concentration-dependent manner; also recorded: significantly inhibited”, the viability at 20 h [3] was greater than 90% and the “Cell Viability (% Control)” value [4] was 95.5 ± 4.2 % Control.

In the case of `C/C=C/c1cc2cc3c(c(=O)c-2co1)C(=O)OC3C` (centres unmarked) [Acrocarpunicain C (3), (E)-1-methyl-7-(prop-1-en-1-yl)-3H-furo [3,4-g]isochromene-3,4(1H)-dione], the IC50 ([1]; RAW 264.7 murine macrophages, 1 μg/mL LPS, 20 h, mean ± S.E.M. of three independent experiments, listed as 3) is reported as no more than 27.2 µM, the IC50 [1, 5] is reported as 5.15 ± 0.18 µM and the “NO inhibitory activity compared to quercetin” value [1] is reported as roughly 7 fold. For the same compound, the “Effect on LPS-increased iNOS mRNA expression” value [2] was “inhibited this increase in a concentration-dependent manner; also recorded: significantly inhibited”, the viability at 20 h [3] was greater than 90% and the “Cell Viability (% Control)” value [4] was 92.7 ± 4.1 % Control.

For `CC=CC1=C(C)C(=O)C2(C)OC(=O)C(C(=O)CCCCC)C2C1` (centres unmarked) [Acrocarpunicain D (4), acrocarpunicain D], the IC50 [1, 6] was 41.7 ± 3.02 µM, the “NO inhibitory activity (in words)” value [1] was “weak NO inhibitory activity” and the “Cell Viability (% Control)” value [4] was 62.2 ± 3.2 % Control.

For `CCC(CCC(C)C1CCC2C3CC=C4CC(OC(=O)C=Cc5cc(O)c(OC)c(O)c5)CCC4(C)C3CCC12C)C(C)C` (stereo not drawn) [Acrocarpunicain E (5), β-sitosteryl trans-3-hydroxyisoferulate], the IC50 ([1]; Mus musculus, RAW264.7, 20 h) was 67.4 ± 4.09 µM and the “NO inhibitory activity (in words)” value [1] was “no NO inhibitory activity”.

In the case of `COc1cc2ccc3c(c2cc1C(C)C)CCCC3(C)C` [Acrocarpunicain F (6), 6-isopropyl-7-methoxy-1,1-dimethyl-1,2,3,4-tetrahydrophenanthrene], the IC50 [1, 6] is reported as no more than 27.2 µM, the IC50 [1, 5] is reported as 27.2 ± 1.87 µM and the “NO inhibitory activity compared to quercetin” value [1] is reported as roughly 1.2 fold. For the same compound, the “Effect on LPS-increased iNOS mRNA expression” value [2] was “inhibited this increase in a concentration-dependent manner; also recorded: significantly inhibited”, the viability at 20 h [3] was greater than 90% and the “Cell Viability (% Control)” value [4] was 91.3 ± 7.1 % Control.

With `O=c1c(O)c(-c2ccc(O)c(O)c2)oc2cc(O)cc(O)c12` [Quercetin, reference compound] the IC50 [1, 6] was 36 ± 2.34 µM and the “Cell Viability (% Control)” value [4] was 95.9 ± 1.3 % Control.
